Measured values from US20040029910A1, “Protoberberine derivatives which inhibit activity of the mitogen-activated protein kinase” (priority 2000, published 2004).

How the values were obtained:
Wis1 kinase = biological target: T1, Wis1 kinase (Schizosaccharomyces pombe, UniProt P33886); assay: Wis1 kinase activity and autophosphorylation ([γ-32P]ATP, SDS-PAGE, FIG. 2); format: biochemical; conditions: purified GST-Wis1, kinase reaction 30° C. 30 minutes, autophosphorylation also measured
T1 construct: The genes wis1 and spc1 were cloned into the pRep1 vector containing nmt1 promoter; made in house; host or cells: Schizosaccharomyces pombe KGY246 (pRep1 vector, nmt1 promoter)
T1 sequence (P33886 1-605): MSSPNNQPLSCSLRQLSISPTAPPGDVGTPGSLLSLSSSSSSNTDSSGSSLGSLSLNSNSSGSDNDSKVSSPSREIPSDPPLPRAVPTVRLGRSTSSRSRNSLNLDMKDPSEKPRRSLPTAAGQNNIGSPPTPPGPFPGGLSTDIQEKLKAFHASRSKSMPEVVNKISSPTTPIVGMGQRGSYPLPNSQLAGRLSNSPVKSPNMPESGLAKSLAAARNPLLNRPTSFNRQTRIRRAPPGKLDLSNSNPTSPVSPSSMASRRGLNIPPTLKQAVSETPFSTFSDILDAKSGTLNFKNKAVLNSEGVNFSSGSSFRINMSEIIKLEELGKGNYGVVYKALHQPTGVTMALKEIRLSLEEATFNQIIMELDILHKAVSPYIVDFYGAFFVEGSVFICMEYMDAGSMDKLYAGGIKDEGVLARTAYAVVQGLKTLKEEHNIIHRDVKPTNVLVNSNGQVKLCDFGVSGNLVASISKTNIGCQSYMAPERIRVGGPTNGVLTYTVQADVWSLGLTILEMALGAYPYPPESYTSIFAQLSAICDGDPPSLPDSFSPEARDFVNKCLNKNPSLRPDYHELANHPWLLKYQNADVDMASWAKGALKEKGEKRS
Method: The genes wis1 and spc1 were cloned into the pRep1 vector containing nmt1 promoter of which expression was inhibited by thiamin in the medium and able to tag GST. The KGY246 cells, wild type Schizosaccharomyces pombe cells were transformed with this plasmid. The expression of Wis1 and Spc1 kinase tagged with GST was induced by the cultivation of the transformed cells in MM^AU medium containing 0.4 mM thiamin followed by cultivation to exponential phase(5×10^6 cells) for about 20 hours in 100 mL of MM^AU medium in which thiamin was withdrawn. After osmotic shock(0.6M KCl) and oxidative stress were given to the cells expressing Wis1 and Spc1 tagged with GST for 25 minutes, cells were recovered at 4° C., washed with ice-cold PBS/NaF(50 mM)/NaN3(1 mM) buffer and HB buffer(25 mM HEPES, pH 7.5, 60 mM β-glycerophosphate, 15 mM EGTA, 0.1 mM Na vanadate, 0.1% triton and hydrolyzed using glass bead and bead beater purchased from Sigma. The supernatant of hydrolyzed cells was incubated with 100 mM NaCl for salting-out to remove unnecessary proteins. After the supernatant was incubated with 0.045 g/ml GST beads for 1.5 hours, proteins not bound to GST beads were removed. Purified Wis1 and Spc1 kinases were separated on 7% SDS-PAGE and the degree of purification was confirmed by western blotting using GST antibody.
Before Wis1 and Spc1 kinases purified in example 4 were analyzed, they were pre-incubated in analyzing buffer of kinase (50 mM Tris-Cl pH7.4, 20 mM MgCl2, 5 mM EGTA, 2 mM Na vanadate, 1 mM DTT). The kinase reaction was performed at 30° C. for 30 minutes in the presence of 1 mg/ml myelin basic protein(MBP), 1 mM ATP and 20 uCi of [γ-^32p]ATP and then terminated by adding SDS sample buffer and heating at 90° C. for 5 minutes. The reaction mixtures were separated on SDS-polyacrylamide gel electrophoresis. After fixation with 10% acetic acid: 10% methanol and drying, the gel was exposed on X-ray film. When Wis1 is activated by stimulus, it also activates autophosphorylation. Therefore, the degree of Wis1 autophosphorylation was also measured.

Spc1 kinase = biological target: T2, Spc1 kinase (Schizosaccharomyces pombe, UniProt Q09892); assay: Spc1 kinase activity, myelin basic protein substrate ([γ-32P]ATP, SDS-PAGE, FIG. 3); format: biochemical; conditions: purified GST-Spc1, myelin basic protein as substrate
T2 construct: The genes wis1 and spc1 were cloned into the pRep1 vector containing nmt1 promoter; made in house; host or cells: Schizosaccharomyces pombe KGY246 (pRep1 vector, nmt1 promoter)
T2 sequence (Q09892 1-349): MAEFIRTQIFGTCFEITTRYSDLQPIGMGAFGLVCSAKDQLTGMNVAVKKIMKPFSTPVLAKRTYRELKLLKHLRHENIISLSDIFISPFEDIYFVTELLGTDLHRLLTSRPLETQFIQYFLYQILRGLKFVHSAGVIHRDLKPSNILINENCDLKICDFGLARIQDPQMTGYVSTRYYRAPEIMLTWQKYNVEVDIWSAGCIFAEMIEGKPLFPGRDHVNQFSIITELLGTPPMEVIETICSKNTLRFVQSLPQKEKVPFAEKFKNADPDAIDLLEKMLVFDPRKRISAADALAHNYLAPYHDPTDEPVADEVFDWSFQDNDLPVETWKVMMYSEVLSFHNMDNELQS
Method: The genes wis1 and spc1 were cloned into the pRep1 vector containing nmt1 promoter of which expression was inhibited by thiamin in the medium and able to tag GST. The KGY246 cells, wild type Schizosaccharomyces pombe cells were transformed with this plasmid. The expression of Wis1 and Spc1 kinase tagged with GST was induced by the cultivation of the transformed cells in MM^AU medium containing 0.4 mM thiamin followed by cultivation to exponential phase(5×10^6 cells) for about 20 hours in 100 mL of MM^AU medium in which thiamin was withdrawn. […]
Before Wis1 and Spc1 kinases purified in example 4 were analyzed, they were pre-incubated in analyzing buffer of kinase (50 mM Tris-Cl pH7.4, 20 mM MgCl2, 5 mM EGTA, 2 mM Na vanadate, 1 mM DTT). […] Therefore, the degree of Wis1 autophosphorylation was also measured.

KGY246 (wild type) = assay: Growth (cell number) of wild type strain KGY246; format: cell-based, Schizosaccharomyces pombe
Method: To investigate the effect of protoberberine derivatives on the growth of cells, the cells of each strain were cultured in rich medium YE^AU to exponential phase(5×10^7 cells/mL). These cells were transferred to YE^AU medium and cultured for 12 hours. Then cell number was measured every 3 hours.

Compound | inhibition of Wis1 kinase activity (in words) (Wis1 kinase) | inhibition of Spc1 kinase activity (in words) (Spc1 kinase) | cell number (KGY246 (wild type); Table 2, KGY246, time 14) | cell number (KGY246 (wild type); Table 2, KGY246, time 17) | cell number (KGY246 (wild type); Table 2, KGY246, time 20) | cell number (KGY246 (wild type); Table 2, KGY246, time 23)
COc1ccc2c(Cc3ccc(C(C)(C)C)cc3)c3[n+](cc2c1OC)CCc1cc2c(cc1-3)OCO2.[Cl-] [13-(4-t-butylbenzyl)berberine chloride] | directly inhibited |  |  |  |  | 
CCCOc1cc2c(cc1OCCC)-c1cc3ccc(OCCC)c(OCCC)c3c[n+]1CC2.[I-] [2,3,9,10-tetrapropoxyprotoberberine iodide] |  | directly inhibited |  |  |  | 
COc1ccc2c(Cc3ccc(O[Si](C)(C)C(C)(C)C)cc3)c3[n+](cc2c1OC)CCc1cc2c(cc1-3)OCO2.[Cl-] [13-(4-(t-butyldimethylsilyloxy)benzyl)berberine chloride] | directly inhibited |  | 20 | 19 | 22 | 16
